Results reported in BigSolDB 2.1.

## O=P(O)(O)c1ccccc1
In acetone, 288.15 K
  solubility (mole fraction): 0.136
In acetone, 293.15 K
  solubility (mole fraction): 0.155
In acetone, 298.15 K
  solubility (mole fraction): 0.174
In acetone, 303.15 K
  solubility (mole fraction): 0.197
In acetone, 308.15 K
  solubility (mole fraction): 0.22
In acetone, 313.15 K
  solubility (mole fraction): 0.245
In acetone, 318.15 K
  solubility (mole fraction): 0.277
In acetonitrile, 288.15 K
  solubility (mole fraction): 0.0136
In acetonitrile, 293.15 K
  solubility (mole fraction): 0.0166
In acetonitrile, 298.15 K
  solubility (mole fraction): 0.0194
In acetonitrile, 303.15 K
  solubility (mole fraction): 0.0228
In acetonitrile, 308.15 K
  solubility (mole fraction): 0.0275
In acetonitrile, 313.15 K
  solubility (mole fraction): 0.0317
In acetonitrile, 318.15 K
  solubility (mole fraction): 0.0365
In chloroform, 288.15 K
  solubility (mole fraction): 0.00104
In chloroform, 293.15 K
  solubility (mole fraction): 0.00134
In chloroform, 298.15 K
  solubility (mole fraction): 0.00164
In chloroform, 303.15 K
  solubility (mole fraction): 0.00211
In chloroform, 308.15 K
  solubility (mole fraction): 0.00257
In chloroform, 313.15 K
  solubility (mole fraction): 0.0032
In chloroform, 318.15 K
  solubility (mole fraction): 0.00393
In ethyl acetate, 288.15 K
  solubility (mole fraction): 0.00523
In ethyl acetate, 293.15 K
  solubility (mole fraction): 0.00634
In ethyl acetate, 298.15 K
  solubility (mole fraction): 0.00755
In ethyl acetate, 303.15 K
  solubility (mole fraction): 0.00896
In ethyl acetate, 308.15 K
  solubility (mole fraction): 0.0106
In ethyl acetate, 313.15 K
  solubility (mole fraction): 0.0127
In ethyl acetate, 318.15 K
  solubility (mole fraction): 0.0155
In n-propanol, 288.15 K
  solubility (mole fraction): 0.305
In n-propanol, 293.15 K
  solubility (mole fraction): 0.336
In n-propanol, 298.15 K
  solubility (mole fraction): 0.358
In n-propanol, 303.15 K
  solubility (mole fraction): 0.388
In n-propanol, 308.15 K
  solubility (mole fraction): 0.417
In n-propanol, 313.15 K
  solubility (mole fraction): 0.445
In n-propanol, 318.15 K
  solubility (mole fraction): 0.47
